Experimental data reported in US20230123334A1, “AMINO LIPID COMPOUND, PREPARATION METHOD THEREFOR, AND APPLICATION THEREOF” (SHENZHEN SHENXIN BIOTECHNOLOGY CO., LTD., priority 2020, published 2023).

The molecules below were run on HEK293 cells (assay: Preliminary screening as DNA vectors, GFP transfection of HEK293 cells). Conditions: amino lipid/DOPE liposome with 75 ng plasmid DNA (psin-EGFP-IRES-Puro); number of GFP-expressing cells divided by total nuclei (Hoechst).
Assay type: cell-based
Procedure, shortened: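 Lipid + DOPE liposomes (NaOAc, pH 5.6) complexed w/ 75 ng psin-EGFP-IRES-Puro, 30 min RT; added to 3-5×10^4 HEK293/well, 37° C. Hoechst 0.2 μg/mL at 20-24 h, imaged after further 20-24 h. Efficiency = GFP+ cells / total nuclei.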

SMILES	Absolute DNA transfection efficiency in HEK293 cells [%]
CCCCCCCCCCCCCCCCSc1nc(NCCCCCC)nc(NCCN(C)C)n1 [S16N6 D1]	8.0
CCCCCCCCCCCCCCCSc1nc(NCCCCCCCCCCC)nc(NCCCN(C)C)n1 [S15N11 D6]	12.9
CCCCCCCCSc1nc(NCCCCCC)nc(NCCN2CCCCC2)n1 [S8N6 D4]	2.6
CCCCCCCCCCCCCCCSc1nc(NCCN(CC)CC)nc(SCCCCCCC)n1 [S7S15 D7]	5.0
CCCCCCCNc1nc(NCCCN2CCN(C)CC2)nc(SCCCCCCC)n1 [S7N7 D9]	10.9
CCCCCCCCCCCCCCCCCCNc1nc(NCCCN(C)C)nc(SCCCCCCCCCCCCCC)n1 [S14N18 D6]	0.9
CCCCCCCCCCCNc1nc(NCCCN2CCN(C)CC2)nc(SCCCCCCCCC)n1 [S9N11 D9]	49.3
CCCCCCCCCCCCNc1nc(NCCN2CCCC2)nc(SCCCCCCCCC)n1 [S9N12 D3]	47.3
CCCCCCCCCCCCCCSc1nc(NCCN(CC)CC)nc(SCCCCCC)n1 [S6S14 D7]	4.7
CCCCCCCCSc1nc(NCCN2CCCC2)nc(SCCCCCCC)n1 [S7S8 D3]	9.2
CCCCCCCCCCCNc1nc(NCCCN2CCN(C)CC2)nc(SCCCCCCCCCCC)n1 [S11N11 D9]	4.9
CCCCCCCSc1nc(NCCCN2CCN(C)CC2)nc(SCCCCCCC)n1 [S7S7 D9]	7.9
CCCCCCCCCCCCCCSc1nc(NCCCCCCC)nc(NCC2CCN(C)CC2)n1 [S14N7 D10]	34.6
CCCCCCCCCCCCN(CCCCCCCCCCCC)c1nc(NCCN2CCCC2)nc(SCCCCCCCCCC)n1 [S10^2N12 D3]	1.1
CCCCCCCCCCCCNc1nc(NCCCN(C)C)nc(SCCCCCCC)n1 [S7N12 D6]	54.6
CCCCCCCCCCCCCNc1nc(NCCN2CCCCC2)nc(SCCCCCCCCCCCC)n1 [S12N13 D4]	0.5
CCCCCCCCCCCSc1nc(NCC2CCN(C)CC2)nc(SCCCCCC)n1 [S6S11 D10]	38.1
CCCCCCCCNc1nc(NCCN(CC)CC)nc(SCCCCCCC)n1 [S7N8 D7]	26.8
CCCCCCCCCCCCCCCCCCNc1nc(NCCCN2CCOCC2)nc(SCCCCCCCCCC)n1 [S10N18 D8]	0.3
CCCCCCCCCCCCCCCCNc1nc(NCCCN2CCN(C)CC2)nc(SCCCCCCCCCCCC)n1 [S12N16 D9]	0.4
CCCCCCCCCCCCCCCSc1nc(NCCCCCCCCC)nc(NCCCN2CCOCC2)n1 [S15N9 D8]	10.1
CCCCCCCCCCCCCCCNc1nc(NCCCN2CCOCC2)nc(SCCCCCCCCCCCCCC)n1 [S14N15 D8]	0.3
CCCCCCCCCCCCCCCSc1nc(NCCCN2CCOCC2)nc(SCCCCCCC)n1 [S7S15 D8]	10.9
CCCCCCCCCCSc1nc(NCCCCCCCC)nc(NCCN2CCCC2)n1 [S10N8 D3]	3.9
CCCCCCCCCCCCCCCSc1nc(NCCCCCCCCCCCC)nc(NCC2CCN(C)CC2)n1 [S15N12 D10]	4.3

SMILES	Absolute DNA transfection efficiency in HEK293 cells [%]
CCCCCCCCCCCCN(CCCCCCCCCCCC)c1nc(NCCN2CCOCC2)nc(SCCCCCCCC)n1 [S8^2N12 D2]	0.0
CCCCCCCCCCCCCCCCSc1nc(NCCN(C)C)nc(SCCCCCC)n1 [S6S16 D1]	8.4
CCCCCCCCCCSc1nc(NCCN(C)C)nc(SCCCCCC)n1 [S6S10 D1]	3.2
CCCCCCCCCCCCCCSc1nc(NCCCCCCCCCCC)nc(NCCN2CCN(C)CC2)n1 [S14N11 D5]	13.3
CCCCCCCCCCCCCCCCSc1nc(NCCCCCCCCCCCCCCC)nc(NCCCN2CCOCC2)n1 [S16N15 D8]	0.0
CCCCCCCCCCCNc1nc(NCCN(C)C)nc(SCCCCCCCCC)n1 [S9N11 D1]	35.3
CCCCCCCCCCCCCCSc1nc(NCCCN(C)C)nc(SCCCCCC)n1 [S6S14 D6]	21.9
CCCCCCCCCCCCNc1nc(NCC2CCN(C)CC2)nc(SCCCCCCCCCC)n1 [S10N12 D10]	6.8
CCCCCCCCCCCCNc1nc(NCCCN2CCN(C)CC2)nc(SCCCCCCCC)n1 [S8N12 D9]	48.3
CCCCCCCCCCCCCCCNc1nc(NCCN(C)C)nc(SCCCCCCCCC)n1 [S9N15 D1]	29.8
CCCCCCCCCSc1nc(NCCCCCCCC)nc(NCCCN2CCOCC2)n1 [S9N8 D8]	12.2
CCCCCCCCCCCCCCCCCCSc1nc(NCC2CCN(C)CC2)nc(SCCCCCCC)n1 [S7S18 D10]	48.9
CCCCCCCCCCCCCCCCCCSc1nc(NCCCCCCCCCCCCCCC)nc(NCCN2CCCCC2)n1 [S18N15 D4]	0.2
CCCCCCCCCCCCCCCSc1nc(NCCN2CCCCC2)nc(SCCCCCC)n1 [S6S15 D4]	7.9
CCCCCCCCCCCCCCCCSc1nc(NCCN2CCOCC2)nc(SCCCCCCC)n1 [S7S16 D2]	17.6
CCCCCCSc1nc(NCCN2CCN(C)CC2)nc(SCCCCCC)n1 [S6S6 D5]	9.1
CCCCCCCCCSc1nc(NCCCN(C)C)nc(SCCCCCC)n1 [S6S9 D6]	7.1
CCCCCCCCCCCSc1nc(NCCN(CC)CC)nc(SCCCCCCC)n1 [S7S11 D7]	10.4
CCCCCCCCCCCCNc1nc(NCCN2CCCC2)nc(SCCCCCCCCCC)n1 [S10N12 D3]	7.2
CCCCCCCCCCCCCCCSc1nc(NCCCCCCCCCCC)nc(NCCN(CC)CC)n1 [S15N11 D7]	9.3
CCCCCCCCCCCCCNc1nc(NCCCN2CCOCC2)nc(SCCCCCCCCCC)n1 [S10N13 D8]	5.7
CCCCCCCCCCCCSc1nc(NCCCCCCC)nc(NCCN2CCN(C)CC2)n1 [S12N7 D5]	3.6
CCCCCCCCCCCCSc1nc(NCCCCCCCCC)nc(NCCN2CCN(C)CC2)n1 [S12N9 D5]	20.2
CCCCCCCCCCCCCCCNc1nc(NCCCN(C)C)nc(SCCCCCCCCCCC)n1 [S11N15 D6]	8.2
CCCCCCCCCCCCCCSc1nc(NCCN2CCN(C)CC2)nc(N(CCCCCCCCCCCC)CCCCCCCCCCCC)n1 [S14^2N12 D5]	0.0

SMILES	Absolute DNA transfection efficiency in HEK293 cells [%]
CCCCCCCCCSc1nc(NCCCCCC)nc(NCCCN(C)C)n1 [S9N6 D6]	8.8
CCCCCCCCCCCCSc1nc(NCCCCCCCCC)nc(NCCCN2CCOCC2)n1 [S12N9 D8]	0.0
CCCCCCCCCCCSc1nc(NCCCCCCCC)nc(NCCN2CCN(C)CC2)n1 [S11N8 D5]	19.3
CCCCCCCCCCCCCCCSc1nc(NCCCN2CCN(C)CC2)nc(SCCCCCC)n1 [S6S15 D9]	8.3
CCCCCCCCCCCSc1nc(NCCCN2CCN(C)CC2)nc(SCCCCCCCC)n1 [S8S11 D9]	12.8
CCCCCCCCCCCCCCCCSc1nc(NCCCCCCCC)nc(NCCN(C)C)n1 [S16N8 D1]	10.0
CCCCCCCCCCCCCCSc1nc(NCCCN2CCOCC2)nc(SCCCCCCC)n1 [S7S14 D8]	11.0
CCCCCCCCCCCCCCCCCCSc1nc(NCCCCCCCC)nc(NCCN(CC)CC)n1 [S18N8 D7]	6.7
CCCCCCCCCNc1nc(NCCN2CCCCC2)nc(SCCCCCCC)n1 [S7N9 D4]	13.0
CCCCCCCCCCCCCCCSc1nc(NCCN(C)C)nc(N(CCCCCCCCCCCC)CCCCCCCCCCCC)n1 [S15^2N12 D1]	0.0
CCCCCCCCCNc1nc(NCCCN2CCN(C)CC2)nc(SCCCCCC)n1 [S6N9 D9]	0.8
CCCCCCCCCCCCCCCSc1nc(NCCCCCCCC)nc(NCCN2CCCCC2)n1 [S15N8 D4]	3.0
CCCCCCCCCCSc1nc(NCCCN(C)C)nc(SCCCCCCCC)n1 [S8S10 D6]	9.3
CCCCCCCCCCCCCCCSc1nc(NCCCCCC)nc(NCCN2CCOCC2)n1 [S15N6 D2]	34.1
CCCCCCCCCCCCSc1nc(NCCN2CCCCC2)nc(SCCCCCCCC)n1 [S8S12 D4]	10.8
CCCCCCCCCCCCCCCCNc1nc(NCCCN2CCN(C)CC2)nc(SCCCCCCCCC)n1 [S9N16 D9]	20.3
CCCCCCCCCCCCCCCCNc1nc(NCC2CCN(C)CC2)nc(SCCCCCCCCCCCC)n1 [S12N16 D10]	2.4
CCCCCCCCCCCCCCCCCCNc1nc(NCCN(C)C)nc(SCCCCCCC)n1 [S7N18 D1]	10.6
CCCCCCCCCNc1nc(NCCN2CCCCC2)nc(SCCCCCCCC)n1 [S8N9 D4]	15.5
CCCCCCCCCCCSc1nc(NCCCCCCCC)nc(NCCN(CC)CC)n1 [S11N8 D7]	10.1
CCCCCCCCCCCCCCCCNc1nc(NCCN2CCCC2)nc(SCCCCCCCCCCCCCCCC)n1 [S16N16 D3]	1.6
CCCCCCCCCCCCSc1nc(NCCCCCCCCC)nc(NCC2CCN(C)CC2)n1 [S12N9 D10]	11.3
CCCCCCCCCCSc1nc(NCCCCCCCC)nc(NCCCN2CCN(C)CC2)n1 [S10N8 D9]	5.6
